Among the test systems are HT29 colon; U251 CNS; SN12C renal; SF-539 CNS; SK-MEL-2 melanoma; HCT-15 colon; DU-145 prostate; A549 NSCLC; SK-MEL-5 melanoma; SNB-19 CNS.
Experiment in all cases: NCI anticancer screen, dose series, 48 h

“And” between values parts separate entries of the source, which are not always exact repeats. Identical values can stand only once.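 Test compounds were applied to cells in 96-well plates for 48 hours at 5 doses. At the GI50, growth is halved. At the TGI there is no net growth.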

With `CC(=O)c1ccc2c(c1)C1C=CCC1[C@H](c1cc3c(cc1Br)OCO3)N2` (some centres undefined), the GI50 was 0.653 µM with HT29 colon; 1.1 µM in the assay on U251 CNS; 1.64 µM in the assay with SN12C renal; 0.893 µM with SF-539 CNS; 1.22 µM with SK-MEL-2 melanoma; 1.24 µM in the assay on HCT-15 colon. The GI50 with DU-145 prostate is 0.893 µM; in the assay on A549 NSCLC, 2.03 µM; in the assay on SK-MEL-5 melanoma it was 1.13 µM; in the assay on SNB-19 CNS, 1.87 µM. In addition, the TGI in the assay with HT29 colon is 13 µM; in the assay on U251 CNS, 11.9 µM; in the assay with SN12C renal it was above 33 µM; with SF-539 CNS it was 2.37 µM; with SK-MEL-2 melanoma it was 12.4 µM; with HCT-15 colon it was 20.6 µM. For the same compound, the TGI in the assay on DU-145 prostate is 4.44 µM; with A549 NSCLC it was above 34.4 µM; in the assay on SK-MEL-5 melanoma, 5.81 µM; in the assay with SNB-19 CNS it was 33.2 µM.
As to `CC(C)c1cnn2c(NCc3ccccc3)cc(NC[C@H]3CCNC[C@@H]3O)nc12`, the GI50 is 0.285 µM and 0.369 µM with HT29 colon; 0.378 µM and 0.382 µM in the assay on U251 CNS; 0.327 µM and 0.378 µM in the assay on SN12C renal; 0.292 µM and 0.436 µM with SF-539 CNS; 0.334 µM and 0.668 µM in the assay on SK-MEL-2 melanoma; 2.94 µM and 2.69 µM with HCT-15 colon. For the same compound, the GI50 in the assay on DU-145 prostate was 0.4 µM and 0.309 µM; in the assay on A549 NSCLC, 0.342 µM and 0.272 µM; in the assay on SK-MEL-5 melanoma it was 0.742 µM and 1.19 µM; in the assay on SNB-19 CNS, 0.495 µM and 0.611 µM. The TGI is 10.3 µM and 5.73 µM in the assay with HT29 colon; 10.7 µM and 10.4 µM in the assay with U251 CNS; 10.5 µM and 6.49 µM in the assay with SN12C renal; 1.68 µM and 1.43 µM in the assay with SF-539 CNS; 1.63 µM and 2.15 µM in the assay on SK-MEL-2 melanoma; 15.2 µM and 12.2 µM in the assay on HCT-15 colon. Besides, the TGI in the assay on DU-145 prostate was 11.4 µM and 9.62 µM; with A549 NSCLC, 11.9 µM and 7.97 µM; in the assay with SK-MEL-5 melanoma it was 2.35 µM and 3.59 µM; in the assay on SNB-19 CNS, 9.76 µM and 8.48 µM.
As for `CS(=O)(=O)CCNCc1cc(-c2cc3c(Nc4ccc(OCc5cccc(F)c5)c(Cl)c4)ncnc3s2)cs1`, the GI50 in the assay with HT29 colon is 5.41 µM; with U251 CNS, 9.34 µM; with SN12C renal, 15.3 µM; in the assay on SF-539 CNS it was 9.92 µM; in the assay with SK-MEL-2 melanoma, 12.8 µM; in the assay on HCT-15 colon, 5.55 µM. For the same compound, the GI50 in the assay on DU-145 prostate is 13.3 µM; in the assay with A549 NSCLC it was 10.8 µM; in the assay with SK-MEL-5 melanoma, 7.09 µM; with SNB-19 CNS it was 24.6 µM. The TGI in the assay with HT29 colon is 13.1 µM; in the assay on U251 CNS, above 25 µM; in the assay on SN12C renal it was above 25 µM; in the assay with SF-539 CNS, above 25 µM; with SK-MEL-2 melanoma, above 25 µM; in the assay on HCT-15 colon, above 20.9 µM. Moreover, the TGI in the assay on DU-145 prostate, in the assay on A549 NSCLC, in the assay on SK-MEL-5 melanoma and in the assay on SNB-19 CNS was above 25 µM each time.
With `CC(C)CCC[C@@H](C)[C@H]1CC[C@H]2[C@@H]3CC[C@H]4C[C@@H](CCC=C(c5cc(Cl)c(O)c(C(=O)O)c5)c5cc(Cl)c(O)c(C(=O)O)c5)CC[C@]4(C)[C@H]3CC[C@]12C`, the TGI with HT29 colon, with U251 CNS, in the assay on SN12C renal, in the assay on SF-539 CNS, in the assay with SK-MEL-2 melanoma and with HCT-15 colon was above 100 µM each time. Also, the TGI with DU-145 prostate, with A549 NSCLC, with SK-MEL-5 melanoma and in the assay with SNB-19 CNS was above 100 µM in each case.
With `CCC(O)c1ccc(Br)cc1NC(=O)c1cccc(Cl)c1` (centres undefined), the GI50 in the assay on HT29 colon was 17.9 µM; in the assay on U251 CNS it was 14.1 µM; in the assay on SN12C renal, 24.4 µM; in the assay with SF-539 CNS, 31.8 µM; in the assay with SK-MEL-2 melanoma it was 28.1 µM; in the assay on HCT-15 colon, 23.1 µM. For the same compound, the GI50 in the assay with DU-145 prostate is 34.5 µM; in the assay with A549 NSCLC it was 19.5 µM; in the assay on SK-MEL-5 melanoma, 14.5 µM; in the assay on SNB-19 CNS, 37.4 µM. Also, the TGI is 37.2 µM in the assay on HT29 colon; 31.8 µM in the assay with U251 CNS; above 100 µM in the assay with SN12C renal; above 100 µM with SF-539 CNS; 82.4 µM in the assay with SK-MEL-2 melanoma; above 100 µM in the assay on HCT-15 colon. The TGI with DU-145 prostate was above 100 µM; in the assay with A549 NSCLC, above 100 µM; with SK-MEL-5 melanoma it was 28.2 µM; in the assay on SNB-19 CNS, above 100 µM.
As for `OCc1ccc(N2CCc3cccc(F)c3C2)cc1Cl`, the GI50 is 0.0334 µM in the assay with HT29 colon; below 0.0297 µM in the assay on U251 CNS; 14.6 µM in the assay with SN12C renal; 27.8 µM in the assay with SF-539 CNS; 10.4 µM with HCT-15 colon; 4.5 µM with DU-145 prostate. Besides, the GI50 was 0.189 µM with A549 NSCLC, 14.9 µM with SK-MEL-5 melanoma and 30.9 µM with SNB-19 CNS. The TGI with HT29 colon was 35.5 µM; in the assay with U251 CNS, 36.3 µM; with SN12C renal, above 70.2 µM; in the assay on SF-539 CNS it was above 87.7 µM; in the assay with SK-MEL-2 melanoma it was 30.5 µM; with HCT-15 colon it was 36.3 µM. Further, the TGI in the assay on DU-145 prostate is 30.3 µM; in the assay with A549 NSCLC it was 15.7 µM; with SK-MEL-5 melanoma, 35.4 µM; with SNB-19 CNS it was above 100 µM.
On to `COc1cc2nc(SCc3cc(OC)c(OC)c(OC)c3)n(Cc3ccccc3)c(=O)c2cc1OC`, for which the GI50 with HT29 colon was 2.76 µM; with U251 CNS, 3.64 µM; with SN12C renal it was 7.65 µM; in the assay with SF-539 CNS, 2.81 µM; in the assay with SK-MEL-2 melanoma, 2.92 µM; with HCT-15 colon, 1.08 µM. The GI50 in the assay with DU-145 prostate was 5.38 µM; in the assay on A549 NSCLC it was 3.14 µM; in the assay on SK-MEL-5 melanoma, 0.454 µM; with SNB-19 CNS, 5.4 µM. For the same compound, the TGI with HT29 colon was above 100 µM; with U251 CNS, 19.3 µM; in the assay with SN12C renal, above 100 µM; in the assay with SF-539 CNS it was 16.2 µM; in the assay with SK-MEL-2 melanoma, 16.8 µM; in the assay on HCT-15 colon, above 100 µM. The TGI with DU-145 prostate was above 100 µM; in the assay with A549 NSCLC it was above 100 µM; in the assay with SK-MEL-5 melanoma it was 2.63 µM; with SNB-19 CNS, 48.2 µM.
As to `NS(=O)(=O)c1ccc(-n2nc3c(c2-c2ccc(Cl)cc2)Cc2ccccc2-3)cc1`, the GI50 in the assay with HT29 colon is 15.4 µM; with U251 CNS it was 19.5 µM; in the assay with SN12C renal it was 5.49 µM; with SF-539 CNS, 17.5 µM; with SK-MEL-2 melanoma it was 13.6 µM; in the assay with HCT-15 colon it was 19.7 µM. Also, the GI50 is 15.1 µM in the assay on DU-145 prostate, 37.8 µM with A549 NSCLC, 1.36 µM in the assay with SK-MEL-5 melanoma and 31.7 µM with SNB-19 CNS. For the same compound, the TGI was found to be 98.1 µM with HT29 colon; 37.3 µM in the assay on U251 CNS; 18.3 µM in the assay on SN12C renal; 31.6 µM in the assay on SF-539 CNS; 29.3 µM in the assay on SK-MEL-2 melanoma; 38.4 µM in the assay with HCT-15 colon. Moreover, the TGI with DU-145 prostate was 33 µM; in the assay on A549 NSCLC, above 100 µM; in the assay with SK-MEL-5 melanoma, 3.33 µM; in the assay with SNB-19 CNS it was above 100 µM.

Values taken from PubChem BioAssay (NCI).
